Results reported in patent US4312874A, “Antibacterial compounds, processes for their preparation and compositions containing them” (Beecham Group Limited, priority 1979, dated 1982).
In brackets after ≈: the same amount, converted by molar mass. Where two headings read alike, the source gives them in different places.

Key:
[1] = system: M. suipneumoniae NCTC 10110; assay: in vitro MIC by serial dilution in Friis modified agarose medium; type: cell-based; conditions: Mesomycoplasma hyopneumoniae, NCTC10110; Table 3
P. mirabilis 889 = assay: MIC by serial dilution in nutrient agar with 5% chocolated horse blood; type: cell-based; conditions: Proteus mirabilis
[2] = system: M. suipneumoniae ATCC 25095; assay: in vitro MIC by serial dilution in Friis modified agarose medium; type: cell-based; conditions: Mesomycoplasma hyopneumoniae, ATCC25095; Table 3
Bacillus subtilis 6633 = assay: MIC by serial dilution in nutrient agar with 5% chocolated horse blood; type: cell-based; conditions: Table 1
Strep. dysgalactiae SPD1 = assay: MIC by agar dilution, veterinary bacteria; conditions: Streptococcus dysgalactiae, SPD1, 24 h
[3] = system: M. bovigenitalium ATCC 14173; assay: in vitro MIC by serial dilution in Friis modified agarose medium; type: cell-based
M. suipneumoniae JF 435 = assay: as above; type: cell-based; conditions: Mesomycoplasma hyopneumoniae, JF435; Table 3
M. hyosnoviae ATCC 25591 = assay: as above; type: cell-based; conditions: Table 3
[4] = system: Strep. suis (group D) SPS11; assay: MIC by agar dilution, veterinary bacteria; conditions: Streptococcus suis, 24 h
[5] = system: Erysipelothrix rhusiopathiae NCTC 8163; assay: MIC by agar dilution, veterinary bacteria; conditions: NCTC8163, 24 h
[6] = system: Staph. aureus B4 (pen resis); assay: MIC by agar dilution, veterinary bacteria; conditions: Staphylococcus aureus, 24 h
Strep. pyogenes A 64/848 = assay: MIC by serial dilution in nutrient agar with 5% chocolated horse blood; type: cell-based; conditions: Streptococcus pyogenes, A64/848; Table 1
M. bovis NCTC 10131 = assay: microbe, parasite or virus in culture; type: cell-based; conditions: NCTC10131
Staph. aureus Oxford = assay: MIC by agar dilution, veterinary bacteria; conditions: Staphylococcus aureus, 24 h
S. typhimurium S18 = assay: MIC by agar dilution, veterinary bacteria; conditions: Salmonella enterica, 24 h
K. aerogenes A = assay: MIC by serial dilution in nutrient agar with 5% chocolated horse blood; type: cell-based; conditions: Klebsiella aerogenes
[7] = system: Pasteurella multocida 1633; assay: as above; type: cell-based; conditions: Table 1
E. coli ESS = assay: as above; type: cell-based; conditions: Escherichia coli; Table 1
[8] = Mean serum concentrations in neonatal piglets after intramuscular or oral administration; type: in vivo; conditions: pig; for concentration at 1 h: 60'
Protocol: Mean serum concentrations in neonatal piglets of Example 3 after intramuscular or oral administration at 50 mg/kg
Blood levels were assessed in neonatal piglets (mean bodyweight ca. 3 kg). The dose was 50 mg/kg administered as a 25 mg/ml of 25% aqueous ethanol solution. Doses were given by intramuscular injection and orally by stomach tube. Piglets were bled at intervals up to 24 hr and the serum assayed microbiologically using B. subtilis ATCC 6633.

[9] = Mean serum concentrations in milk weaned piglets after oral administration; type: in vivo; conditions: pig, p.o. 50 mg/kg
Protocol: Mean serum concentrations in milk weaned piglets of Example 3 after oral administration at 50 mg/kg
Blood levels were assessed in milk weaned piglets (mean bodyweight 4.1 kg). The dose was 50 mg/kg administered orally (intubation) as a 25 mg/ml of 25% aqueous ethanol solution. Piglets were bled at intervals up to […] and the serum assayed microbiologically using B. subtilis ATCC 6633.

[10] = Mouse blood levels of Example 3 following oral and subcutaneous administration; type: in vivo, albino male mice (strain OLAC: MF-1); conditions: read-out: blood conc.; for concentration at 0.5 h: 30 min; for concentration at 0.75 h: 45 min; for concentration at 1 h: 60 min; for concentration at 1.5 h: 90 min
Protocol: Mouse blood levels of Example 3 following its oral and subcutaneous administration
Blood levels were assessed in albino male mice (strain OLAC: MF-1, 18-22 g). The dose was 50 mg/kg administered in a 10% ethanol solution orally and subcutaneously. The mice were killed at intervals up to 90 min and the blood assayed microbiologically using B. subtilis ATCC 6633 in TSA at pH 8.0.

## CCC(=O)C=C(C)CC1OCC(CC2OC2C(C)C(C)O)C(O)C1O [Example 2, 1-[3R,4R-Dihydroxy-5S-(2S,3S-epoxy-5-S-hydroxy-4S-methylhexyl)tetrahydropyran-2S-yl]-2-methylhex-2E-en-4-one]
[1]
  MIC: 5 µg/mL (≈ 14 µM)
P. mirabilis 889
  MIC: > 50 µg/mL
[2]
  MIC: 2.5 µg/mL (≈ 7.01 µM)
Bacillus subtilis 6633
  MIC: 2.5 µg/mL (≈ 7.01 µM)
Strep. dysgalactiae SPD1
  MIC: 20 µg/mL (≈ 56.1 µM)
[3]
  MIC: 0.1 µg/mL (≈ 0.281 µM)
M. suipneumoniae JF 435
  MIC: 5 µg/mL (≈ 14 µM)
M. hyosnoviae ATCC 25591
  MIC: 2.5 µg/mL (≈ 7.01 µM)
[4]
  MIC: > 40 µg/mL
[5]
  MIC: > 40 µg/mL
[6]
  MIC: 0.625 µg/mL (≈ 1.75 µM)
Strep. pyogenes A 64/848
  MIC: 12.5 µg/mL (≈ 35.1 µM)
M. bovis NCTC 10131
  MIC: 0.1 µg/mL (≈ 0.281 µM)
Staph. aureus Oxford
  MIC: 0.312 µg/mL (≈ 0.875 µM)
S. typhimurium S18
  MIC: > 40 µg/mL
K. aerogenes A
  MIC: > 50 µg/mL
[7]
  MIC: 2.5 µg/mL (≈ 7.01 µM)

## CCCCC(=O)C=C(C)CC1OCC(CC2OC2C(C)C(C)O)C(O)C1O [Example 3, 1-[3R,4R-Dihydroxy-5S-(2S,3S-epoxy-5S-hydroxy-4S-methylhexyl)tetrahydropyran-2S-yl]-2-methyloct-2E-en-4-one]
[1]
  MIC: 1 µg/mL (≈ 2.6 µM)
P. mirabilis 889; Table 1, read-out: MIC
  MIC: 100 µg/mL (≈ 260 µM)
[2]
  MIC: 1 µg/mL (≈ 2.6 µM)
Bacillus subtilis 6633
  MIC: 0.5 µg/mL (≈ 1.3 µM)
Strep. dysgalactiae SPD1
  MIC: 10 µg/mL (≈ 26 µM)
E. coli ESS
  MIC: 1 µg/mL (≈ 2.6 µM)
[3]; Table 3, read-out: MIC
  MIC: 0.05 µg/mL (≈ 0.13 µM)
M. suipneumoniae JF 435
  MIC: 1 µg/mL (≈ 2.6 µM)
M. hyosnoviae ATCC 25591
  MIC: 0.25 µg/mL (≈ 0.65 µM)
[8]; im, i.m. 50 mg/kg
  concentration at 10 min: 8500 ng/mL
  concentration at 20 min: 7900 ng/mL
  concentration at 40 min: 5100 ng/mL
  concentration at 1 h: 4300 ng/mL
  concentration at 2 h: 1300 ng/mL
  concentration at 3 h: 1200 ng/mL
  concentration at 4 h: < 70 ng/mL
[8]; po, p.o. 50 mg/kg
  concentration at 10 min: 3100 ng/mL
  concentration at 20 min: 2000 ng/mL
  concentration at 40 min: 1400 ng/mL
  concentration at 1 h: 830 ng/mL
  concentration at 2 h: 700 ng/mL
  concentration at 3 h: 600 ng/mL
  concentration at 4 h: < 70 ng/mL
[4]
  MIC: > 80 µg/mL
[5]
  MIC: > 80 µg/mL
[6]
  MIC: 2.5 µg/mL (≈ 6.5 µM)
M. bovis NCTC 10131
  MIC: 0.025 µg/mL (≈ 0.065 µM)
Staph. aureus Oxford
  MIC: 2.5 µg/mL (≈ 6.5 µM)
S. typhimurium S18
  MIC: > 80 µg/mL
[9]; 10'
  concentration at 10 min: 2100 ng/mL
[9]; 20'
  concentration at 20 min: 1900 ng/mL
[9]; 40'
  concentration at 40 min: 720 ng/mL
[9]; 60'
  concentration at 1 h: 1100 ng/mL
[9]; 2 hr
  concentration at 2 h: 480 ng/mL
[9]; 3 hr
  concentration at 3 h: 370 ng/mL
[9]; 4 hr
  concentration at 4 h: 200 ng/mL
[9]; 6 hr
  concentration at 6 h: 110 ng/mL
[9]; 8 hr
  concentration at 8 h: < 60 ng/mL
K. aerogenes A; Table 1, read-out: MIC
  MIC: > 100 µg/mL
[10]; oral 50 mg/kg
  concentration at 5 min: 9400 ng/mL
  concentration at 10 min: 5100 ng/mL
  concentration at 20 min: < 1500 ng/mL
  concentration at 0.5 h: < 1500 ng/mL
  concentration at 0.75 h: < 1500 ng/mL
  concentration at 1 h: < 1500 ng/mL
  concentration at 1.5 h: < 1500 ng/mL
[10]; sc, subcutaneous 50 mg/kg
  concentration at 5 min: 19800 ng/mL
  concentration at 10 min: 15500 ng/mL
  concentration at 20 min: 7300 ng/mL
  concentration at 0.5 h: 2200 ng/mL
  concentration at 0.75 h: < 1500 ng/mL
  concentration at 1 h: < 1500 ng/mL
  concentration at 1.5 h: < 1500 ng/mL
[7]
  MIC: 0.5 µg/mL (≈ 1.3 µM)
